“Also recorded” adds a separate entry of the source. Like-named read-outs stand apart in the source and are kept apart here.
What was measured:
[1] = tested on: rabbit corneal endothelial cells; experiment: Cell shape morphometry of confluent cultured rabbit corneal endothelial cells (Example 1); details: for potentiation of EGF-induced elongation: 10^-5, equimolar, in presence of EGF; for rank order of potency of cyclooxygenase inhibitors on cell shape: effect on cell shape in presence of EGF; for cell shape at confluence / mean / distribution of the major axes (Amax): cultured seven days; for cell shape at confluence: control cells polygonal; for mean / distribution of the major axes (Amax): control mean 33 μ; for ratio Per/Amax: perimeter / major axis, 3.14 for a perfectly round cell
[2] = tested on: human corneal endothelial cells; details: EGF and/or indomethacin; cited from earlier work
[3] = tested on: rabbit corneal endothelial cells; details: cited from earlier work; for cell shape in first passage cultures (rabbit): EGF and/or indomethacin
[4] = tested on: most cell culture systems; details: cited from earlier work
cat corneal endothelium = details: 22° C.; cited from earlier work
[5] = tested on: Corneal endothelial cells; experiment: Transmission electron microscopy of pharmacologically modulated endothelial phenotypes; details: cultured cells
[6] = tested on: intact rabbit corneal endothelium; experiment: Endothelial wound closure in excised rabbit corneas, specular microscopy with morphometric analysis (Example 3)
[7] = tested on: cultured corneal endothelial cells; details: control cultures and cultures with EGF
[8] = tested on: cultured corneal endothelial cells; experiment: Pharmacological regulation of morphology and mitosis in cultured rabbit corneal endothelium (Example 2); type: cell-based
[9] = tested on: Corneal endothelial cells; experiment: f-actin labelling with rhodamine labelled phallacidin in cultured corneal endothelial cells; details: 1 week culture; control shows circumferential bands of f-actin
[10] = EGF 10 ng/ml, indomethacin 1 μM in M-K medium

**Q.** With `CCCCC[C@H](O)/C=C/[C@@H]1[C@@H](C/C=C\CCCC(=O)O)[C@@H](O)C[C@H]1O` [PGF2α] as the compound, how does the “effect on elongation of Amax produced by EGF and indomethacin” value ([1]; increasing concentrations/doses added with EGF and indomethacin) read?
**A.** has no effect on the elongation of Amax

**Q.** With `CC(C(=O)O)c1ccc(C(=O)c2cccs2)cc1` (stereo not shown) [suprofen] as the compound, how does the “potentiation of EGF-induced elongation” value [1] read?
**A.** Potentiation of EGF-induced elongation also occurs

**Q.** What about the “rank order of potency of cyclooxygenase inhibitors on cell shape” value [1] of the same compound?
**A.** indomethacin>suprofen>flurbiprofen

**Q.** With `CC(C(=O)O)c1ccc(-c2ccccc2)c(F)c1` (stereo not shown) [flurbiprofen] as the compound, how does the “rank order of potency of cyclooxygenase inhibitors on cell shape” value [1] read?
**A.** indomethacin>suprofen>flurbiprofen

**Q.** Which “potentiation of EGF-induced elongation” value [1] does the source give for `C[C@@H]1C[C@H]2[C@@H]3CCC4=CC(=O)C=C[C@]4(C)[C@@]3(F)[C@@H](O)C[C@]2(C)[C@@]1(O)C(=O)CO` [dexamethasone] here?
**A.** has no effect

**Q.** What about the “rank order of potency of cyclooxygenase inhibitors on cell shape” value [1] of the same compound?
**A.** inactivity

**Q.** With epidermal growth factor [EGF] as the compound, how does the “cell shape in first passage cultures (human)” value [2] read?
**A.** cause elongation

**Q.** And the “cell shape in first passage cultures (rabbit)” value [3]?
**A.** cause elongation

**Q.** And the “shape change in cultured rabbit tissue (April 1986 paper)” value [3]?
**A.** induce a shape change in the cells that is independent of mitosis

**Q.** What about the “time after addition at which DNA synthesis reaches a maximum” value [4] of the same compound?
**A.** about 22 hours

**Q.** And the “time after addition at which increased DNA synthesis begins” value [4]?
**A.** approximately 15 hours

**Q.** What about the “time for association of radiolabeled EGF to be complete” value (cat corneal endothelium) of the same compound?
**A.** approximately 120 minutes

**Q.** What about the “ultrastructure by transmission electron microscopy” value [5] of the same compound?
**A.** Junctional complexes were absent

**Q.** And the “average percent change of the shape factor relative to control group” value ([6]; 150 minutes after wounding)?
**A.** two times greater

**Q.** And the “average displacement of cells near the wound boundary” value ([6]; 150 minutes after wounding, control 7 μm)?
**A.** ~16 μm

**Q.** And the “migration of cells near the wound boundary vs control group” value [6, 10]?
**A.** migrated significantly more than those in the control group; also recorded: significantly increased migration of cells near the wound boundary

**Q.** What about the “wound closure time vs control group” value [6, 10] of the same compound?
**A.** shortened the wound closure time

**Q.** And the “time after wounding at which wound area reached maximum” value ([6]; EGF 10 ng/ml, indomethacin 1 μM in M-K medium, 37° C., control 20 minutes)?
**A.** 10 min

**Q.** What about the “time for wound area to decrease to 50% of the original size” value ([6]; EGF 10 ng/ml, indomethacin 1 μM, control about 240 minutes) of the same compound?
**A.** ≤ 120 min

**Q.** What about the “relative average percent change of the shape factor, significance vs control (FIG. 3)” value ([6]; EGF+indomethacin at 50, 100, 150 minutes, EGF at 100 and 150 minutes) of the same compound?
**A.** significantly different from the control group

**Q.** What about the “time of peak of the shape change” value ([6]; one cornea per group, control 200 minutes) of the same compound?
**A.** 150 min

**Q.** And the “wound closed to percent of the original size” value ([6]; within 250 minutes after wounding)?
**A.** 80%

**Q.** What about the cell density ([1]; compared with cells grown under control conditions) of the same compound?
**A.** little or no effect on cell density

**Q.** What about the “cell shape at confluence” value [1] of the same compound?
**A.** spindle-shaped at confluence

**Q.** And the “mean / distribution of the major axes (Amax)” value [1]?
**A.** significantly greater distribution of major axes

**Q.** What about the “ratio Per/Amax” value [1] of the same compound?
**A.** decreases significantly

**Q.** And the “synthesis of PGE2” value [7]?
**A.** unaffected

**Q.** Which results are given for Cholera toxin?
**A.** cell shape (elongation), agent alone [8]: had no effect on cell shape; effect on EGF and INDO-induced elongation [8]: antagonized EGF and INDO-induced elongation; effect on EGF-induced elongation [8]: EGF-induced elongation did not occur; effect on cell density / mitosis in presence of EGF and INDO [8]: without preventing increased cell density; effect on elongation in response to TPA [8]: did not prevent elongation in response to TPA; effect on mitogenic effect of EGF [8]: potentiated; effect on mitogenic response to TPA [8]: potentiate the mitogenic response

**Q.** With `C=C[C@@]1(C)CC(=O)[C@]2(O)[C@@]3(C)[C@@H](O)CCC(C)(C)[C@@H]3[C@H](O)[C@H](OC(C)=O)[C@@]2(C)O1` [Forskolin] as the compound, how does the “effect on EGF and INDO-induced elongation” value ([8]; added with EGF and INDO) read?
**A.** prevented EGF and INDO-induced elongation

**Q.** What about the “effect on cell density / mitosis in presence of EGF and INDO” value ([8]; added with EGF and INDO) of the same compound?
**A.** inhibited endothelial mitosis

**Q.** For `CCCCC/C=C\C/C=C\C/C=C\C/C=C\CCCC(=O)O` [arachidonic acid], which “effect on cell shape” value ([1]; added in the absence of EGF, in the presence or absence of indomethacin) is on record?
**A.** had no effect on cell shape

**Q.** For `CCCCC[C@H](O)/C=C/[C@H]1[C@H](O)CC(=O)[C@@H]1C/C=C\CCCC(=O)O` [PGE2, prostaglandin E2], which “effect of exogenous PGE2 on elongation in cultures treated with EGF and indomethacin” value ([3]; added with EGF and indomethacin) is on record?
**A.** blocks elongation

**Q.** For `COc1ccc2c(c1)c(CC(=O)O)c(C)n2C(=O)c1ccc(Cl)cc1` [indomethacin], which “cell shape in first passage cultures (human)” value [2] is on record?
**A.** cause elongation

**Q.** And the “cell shape in first passage cultures (rabbit)” value [3]?
**A.** cause elongation

**Q.** And the “PGE2 synthesis by cultures of polygonal endothelial cells” value [3]?
**A.** totally inhibited

**Q.** What about the “cellular elongation, INDO added to TPA containing medium” value ([8]; with TPA) of the same compound?
**A.** marked enhancement of cellular elongation

**Q.** What about the “final cell density, INDO added to TPA containing medium” value ([8]; with TPA) of the same compound?
**A.** had no effect on final cell density

**Q.** What about the f-actin staining pattern [9] of the same compound?
**A.** almost completely lacking in individual actin fibers

**Q.** And the “cell shape at confluence” value [1]?
**A.** elongated at confluence with a stellate shape

**Q.** What about the “mean / distribution of the major axes (Amax)” value [1] of the same compound?
**A.** increases

**Q.** What about the “rank order of potency of cyclooxygenase inhibitors on cell shape” value [1] of the same compound?
**A.** indomethacin>suprofen>flurbiprofen

**Q.** What about the “ratio Per/Amax” value [1] of the same compound?
**A.** 2.6

**Q.** And the “synthesis of PGE2” value [7]?
**A.** totally inhibits

**Q.** For `CCCCCCCCCCCCCC(=O)O[C@@H]1[C@@H](C)[C@@]2(O)[C@@H](C=C(CO)C[C@]3(O)C(=O)C(C)=C[C@@H]23)[C@H]2C(C)(C)[C@]12OC(C)=O` [TPA], which “cell density / mitosis, agent alone” value [8] is on record?
**A.** increased cell density

**Q.** And the “cell shape (elongation), agent alone” value [8]?
**A.** caused elongation

**Q.** And the “synergy when TPA and EGF both present in the medium” value [8]?
**A.** synergistic effects were not noted

From patent US5032575A, “Method for enhancing healing of corneal endothelial wounds” (Eye Research Institute of Retina Foundation, Inc., priority 1989, dated 1991)
